Measurements reported in patent publication US5360803A, “Composition and method for treating cancer” (Dan Farber Cancer Institute, priority 1992, dated 1994).
Like-named read-outs stand apart in the source and are kept apart here.

Tests used:
CV-1 cells = assay: selective killing assay, colony number reduced to 50% of control, normal monkey kidney epithelial cell line CV-1; format: cell-based; details: 24 hours treatment; for IC50: Primates
From the text: (§1) The control received culture media only.

CX-1 cells = assay: selective killing assay, colony number reduced to 50% of control, human colon carcinoma cell line CX-1; format: cell-based; details: for Selectivity (ratio of IC50 for CV-1 and IC50 for CX-1): CV-1/CX-1; for IC50: Homo sapiens, CX-1, Table III; for IC50 / CX-1 (IC50): human colon carcinoma, 24 hours treatment, colony count after 7 to 10 days; for CX-1 (IC50): Table III;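 for all read-outs here: colonies stained with crystal violet and counted, control cells given medium alone, exposure at 37 °C, normal monkey kidney epithelial CV-1 cells as the non-cancer comparator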
EJ cells = assay: colony assay of Example 1 with human bladder carcinoma EJ cell line; format: cell-based; details: for Selectivity: CV-1/EJ; for IC50: Homo sapiens, EJ, 24 h; for IC50 / EJ (IC50): Table IV, human bladder carcinoma, 24 hours treatment;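 for all read-outs here: colony formation assay with 24 h compound exposure at 37 °C, then 7–10 days drug-free regrowth, colonies stained with crystal violet, controls given medium alone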
LOX cells = assay: colony assay of Example 1 with human melanoma LOX cell line; format: cell-based; details: for Selectivity: CV-1/LOX; for IC50: Homo sapiens, LOX, 24 h; for IC50 / LOX(IC50): Table V, human melanoma, 24 hours treatment;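 for all read-outs here: colony formation assay with 24 h exposure at 37 °C, then 7 to 10 days of regrowth, crystal violet staining of colonies, control wells given medium alone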
Experimental: (§2) Human colon carcinoma cell line CX-1 or normal monkey kidney epithelial cell line CV-1 was chosen as representatives of cancer cells and normal cells, respectively. […] CX-1 cells (2,000 cells/well) and CV-1 cells (1,000 cells/well) were plated in 24-well plastic culture plates. […] The control received culture media only. Cells were treated with compounds of General Formulas (I) to (V) at 37° C. for 24 hours. After rinsing with fresh culture medium three times, the cells were further incubated at 37° C. for 7 to 10 days. Cell colonies were fixed and stained with 2% crystal violet in 70% ethanol for 10 minutes and rinsed in water. […] The selectivity is defined as the ratio of IC50 for CV-1 and IC50 for CX-1.

MCF-7 cells = assay: colony assay of Example 1 with human breast carcinoma MCF-7 cell line; format: cell-based; details: for Selectivity: CV-1/MCF-7; for IC50: Homo sapiens, MCF7, 24 h, Table VI, human breast carcinoma, 24 hours treatment
From the text: as §1

CRL 1420 cells = assay: colony assay of Example 1 with human pancreatic carcinoma CRL 1420 cell line; format: cell-based; details: for Selectivity: CV-1/CRL-1420; for IC50: Homo sapiens, 24 h; for IC50 / CRL-1420(IC50): Table VII, human pancreatic carcinoma, 24 hours treatment;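 for all read-outs here: colony formation assay, cells exposed for 24 h then regrown 7 to 10 days without compound, colonies stained with crystal violet, control given medium alone, normal reference CV-1 monkey kidney epithelial cells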
Experimental: as §2

human melanoma LOX = assay: survival of nude mice implanted with human melanoma LOX; format: in vivo, male athymic Swiss nu/nu mouse (human tumor)
Experimental: LOX, a human melanoma cell line, grown subcutaneously in nude mice was excised, trypsinized to yield a single cell suspension using a metal grid with a […] mesh. […] Five million viable trypan blue negative cells made up in 0.1 ml of Dulbecco modified Eagle medium (DMFE) were injected into the peritoneal cavity of a male athymic Swiss nu/nu mouse. The control group and each treatment group consisted of 5 to 10 mice. Treatment was commenced the following day by intraperitoneal injection.
Ten control mice received 0.25 ml of 2% dextrose on these days the treated groups were injected with the compounds of this invention. […] T/C is the ratio, expressed as a percentage of the mean survival age of the treated group to the mean survival age of the untreated control group.

[1] = CV-1, Table III, normal monkey kidney epithelial cells, colony count after 7 to 10 days
[2] = Table III, normal monkey kidney epithelial cells, colony count after 7 to 10 days
[3] = 5 mg/kg i.p. on day 1, 4, 8, 11

Row | SMILES | IC50 (EJ cells) [µg/mL] | IC50 (LOX cells) [µg/mL] | IC50 (MCF-7 cells) [µg/mL] | IC50 (CRL 1420 cells) [µg/mL] | EJ (IC50) (EJ cells) [µg/mL] | LOX(IC50) (LOX cells) [µg/mL] | CRL-1420(IC50) (CRL 1420 cells) [µg/mL] | IC50 (CV-1 cells; CV-1, 24 h, Table IV) [µg/mL] | IC50 (CV-1 cells; CV-1, 24 h, Table V) [µg/mL] | IC50 (CV-1 cells; CV-1, 24 h, Table VI) [µg/mL] | IC50 (CV-1 cells; CV-1, 24 h, Table VII) [µg/mL] | IC50 (CV-1 cells; [1]) [µg/mL] | Selectivity (ratio of IC50 for CV-1 and IC50 for CX-1) (CX-1 cells) | IC50 (CX-1 cells) [µg/mL] | Selectivity (EJ cells) | Selectivity (LOX cells) | Selectivity (MCF-7 cells) | Selectivity (CRL 1420 cells) | further results
1 | CCn1c(=Cc2oc3c4ccccc4ccc3[n+]2CC)sc(=C2Sc3ccc4ccccc4c3N2C)c1=O [Compound 315] |  |  | 0.05 |  | 0.005 | 0.005 | 0.005 |  |  | 20 |  |  |  |  | 4000 | 4000 | 400 | 4000 | 
2 | CCn1c(=CC2=[N+](CC)CCS2)sc(=C2SC3=C(CCCC3)N2C)c1=O [Compound 340] |  |  | 0.1 |  |  |  |  |  |  | 20 |  |  |  |  |  |  | 200 |  | response vs control in vivo at 8 mg/kg (human melanoma LOX; Mus musculus, ip, 24 h, 8 mg/kg i.p. on day 1, 3, 8, 13, read-out: T/C): 194%
3 | CCn1c(=Cc2oc3ccccc3[n+]2C)sc(=C2Sc3ccccc3N2C)c1=O [Compound 14] |  |  |  |  | 0.05 | < 0.1 | 0.05 |  |  |  |  |  | 667 |  | 400 | > 300 |  | 400 | CV-1 (IC50) (CV-1 cells; [2]): 20 µg/mL; CV-1 (IC50) (CV-1 cells; Table IV): 20 µg/mL; CV-1 (IC50) (CV-1 cells; Table V): > 30 µg/mL; CV-1 (IC50) (CV-1 cells; Table VII): 20 µg/mL; CX-1 (IC50) (CX-1 cells): 0.03 µg/mL; T/C (human melanoma LOX; [3]): 147%
4 | CCn1c(=Cc2sc3c4ccccc4ccc3[n+]2CC)sc(=C2Sc3ccccc3N2C)c1=O [Compound 31] | 0.02 | 0.04 | 0.04 |  |  |  |  | 10 | 10 | 10 |  | 10 | 333 | 0.03 | 500 | 250 | 250 |  | response vs control in vivo at 5 mg/kg (human melanoma LOX; Mus musculus, ip, 24 h, 5 mg/kg i.p. on day 1, 4, 8, 11, read-out: T/C): 153%
5 | CCn1c(=Cc2sc3ccccc3[n+]2CC)sc(=C2Sc3ccc4ccccc4c3N2C)c1=O [Compound 310] | 0.005 | 0.005 |  | 0.005 |  |  |  | 2 | 2 |  | 2 |  |  |  | 400 | 400 |  | 400 | response vs control in vivo at 8 mg/kg (human melanoma LOX; Mus musculus, ip, 24 h, 8 mg/kg i.p. on day 1, 3, 4, 6, 8, 10, read-out: T/C): 206%

Second part, led by results:

Row | IC50 (EJ cells) [µg/mL] | IC50 (LOX cells) [µg/mL] | IC50 (MCF-7 cells) [µg/mL] | IC50 (CRL 1420 cells) [µg/mL] | EJ (IC50) (EJ cells) [µg/mL] | LOX(IC50) (LOX cells) [µg/mL] | CRL-1420(IC50) (CRL 1420 cells) [µg/mL] | SMILES | IC50 (CV-1 cells; CV-1, 24 h, Table IV) [µg/mL] | IC50 (CV-1 cells; CV-1, 24 h, Table V) [µg/mL] | IC50 (CV-1 cells; CV-1, 24 h, Table VI) [µg/mL] | IC50 (CV-1 cells; CV-1, 24 h, Table VII) [µg/mL] | IC50 (CV-1 cells; [1]) [µg/mL] | Selectivity (ratio of IC50 for CV-1 and IC50 for CX-1) (CX-1 cells) | IC50 (CX-1 cells) [µg/mL] | Selectivity (EJ cells) | Selectivity (LOX cells) | Selectivity (MCF-7 cells) | Selectivity (CRL 1420 cells) | further results
6 | 0.05 | 0.03 | 0.05 | 0.05 |  |  |  | CCn1c(=Cc2oc3cc4ccccc4cc3[n+]2CC)sc(=C2C=Cc3ccccc3N2C)c1=O [Compound 227] | 8 | 8 | 8 | 8 | 8 | 100 | 0.08 | 160 | 267 | 160 | 160 | 
7 | 0.02 | 0.005 | 0.03 | 0.03 |  |  |  | CCn1c(=Cc2oc3ccc4ccccc4c3[n+]2CC)sc(=C2Oc3c(ccc4ccccc34)N2C)c1=O [Compound 253] | 6 | 6 | 6 | 6 | 6 | 120 | 0.05 | 300 | 1200 | 200 | 200 | 
8 |  |  |  |  | 0.2 | 0.07 | 0.04 | CCn1c(=Cc2oc3ccccc3[n+]2C)sc(=C2Sc3ccccc3N2C)c1=O [Compound 15] |  |  |  |  |  | 1000 |  | 100 | 286 |  | 500 | CV-1 (IC50) (CV-1 cells; [2]): 20 µg/mL; CV-1 (IC50) (CV-1 cells; Table IV): 20 µg/mL; CV-1 (IC50) (CV-1 cells; Table V): 20 µg/mL; CV-1 (IC50) (CV-1 cells; Table VII): 20 µg/mL; CX-1 (IC50) (CX-1 cells): 0.02 µg/mL; T/C (human melanoma LOX; [3]): 163%
